Experimental data: PubChem BioAssay AID330 (DTP/NCI, 2004)
“And” between values parts separate entries of the source, which are not always exact repeats. Equal values may be shown once. Inconclusive results and toxic doses are left out. The calls were made as follows: active = survival T/C of 150% or more; inactive = T/C below 125% in these data.

System: P388 leukemia ip, CD2F1 mice, survival T/C
Assay: NCI In Vivo Anticancer Drug Screen. Data for tumor model P388 Leukemia (intraperitoneal) in CD2F1 (CDF1) mice
Details: endpoint: median survival time, higher = longer survival
In short: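 Mice carrying the transplanted tumor received test compound or vehicle. Survival was recorded in each group, and the value is the treated-group measurement divided by that of the vehicle-treated control group.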

[1] = dose: 50.0 mg/kg/injection, schedule: Q01DX009 (ip), vehicle: saline with Tween-80
[2] = dose: 50.0 mg/kg/injection, schedule: Q04DX003 (ip), vehicle: saline with Tween-80
[3] = dose: 100.0 mg/kg/injection, schedule: Q01DX009 (ip), vehicle: saline with Tween-80
[4] = dose: 100.0 mg/kg/injection, schedule: Q04DX003 (ip), vehicle: saline with Tween-80
[5] = dose: 60.0 mg/kg/injection, schedule: Q01DX005 (ip), vehicle: saline with Tween-80
[6] = dose: 120.0 mg/kg/injection, schedule: Q01DX005 (ip), vehicle: saline with Tween-80
[7] = dose: 240.0 mg/kg/injection, schedule: Q01DX005 (ip), vehicle: saline with Tween-80
[8] = dose: 25.0 mg/kg/injection, schedule: Q01DX005 (ip), vehicle: saline with Tween-80
[9] = dose: 100.0 mg/kg/injection, schedule: Q01DX005 (ip), vehicle: saline with Tween-80
[10] = dose: 50.0 mg/kg/injection, schedule: Q01DX009 (ip), vehicle: Klucel (hydroxypropylcellulose) (HPC)
[11] = dose: 100.0 mg/kg/injection, schedule: Q01DX009 (ip), vehicle: Klucel (hydroxypropylcellulose) (HPC)
[12] = dose: 200.0 mg/kg/injection, schedule: Q01DX009 (ip), vehicle: Klucel (hydroxypropylcellulose) (HPC)
[13] = dose: 100.0 mg/kg/injection, schedule: Q01DX001 (ip), vehicle: saline with Tween-80
[14] = dose: 50.0 mg/kg/injection, schedule: Q01DX005 (ip), vehicle: saline with Tween-80

Measured: T/C

CCOC(=O)C(=O)Nc1sc(C)c(C)c1C#N
inactive: dose: 50.0 mg/kg/injection, schedule: Q01DX009 (ip), vehicle: saline + alcohol 90 % of control | dose: 100.0 mg/kg/injection, schedule: Q01DX009 (ip), vehicle: saline + alcohol 98 % of control | dose: 200.0 mg/kg/injection, schedule: Q01DX009 (ip), vehicle: saline + alcohol 105 % of control

CC1(C)OC2C(COC(=O)Oc3ccccc3)OC(n3cnc4c(=S)nc[nH]c43)C2O1 (stereo not drawn)
inactive: dose: 25.0 mg/kg/injection, schedule: Q01DX009 (ip), vehicle: saline with Tween-80 95 % of control | dose: 25.0 mg/kg/injection, schedule: Q04DX003 (ip), vehicle: saline with Tween-80 105 % of control | [1] 95 % of control | [2] 110 % of control | [3] 95 % of control | [4] 100 % of control

CCC1=C2C(=O)c3ccccc3C2=C(C)S(=O)(=O)O1
inactive: [2] 109 % of control | [4] 86 % of control

O=C1OC(Cc2ccccc2)=C(Cl)C(Cl)(Cc2ccccc2)C1Cl (stereo not drawn)
inactive: dose: 100.0 mg/kg/injection, schedule: Q01DX001 (ip), vehicle: Klucel (hydroxypropylcellulose) (HPC) 100 % of control | dose: 200.0 mg/kg/injection, schedule: Q01DX001 (ip), vehicle: Klucel (hydroxypropylcellulose) (HPC) 108 % of control

CCC[CH2][Sn]([CH2]CCC)[O][Sn]([Cl])([CH2]CCC)[CH2]CCC
inactive: dose: 0.79 mg/kg/injection, schedule: Q01DX009 (ip), vehicle: saline 100 % of control | dose: 1.56 mg/kg/injection, schedule: Q01DX009 (ip), vehicle: saline with Tween-80 100 % of control | dose: 1.56 mg/kg/injection, schedule: Q01DX009 (ip), vehicle: saline 100 % of control | dose: 3.12 mg/kg/injection, schedule: Q01DX009 (ip), vehicle: saline with Tween-80 101 % of control and 113 % of control | dose: 3.12 mg/kg/injection, schedule: Q01DX009 (ip), vehicle: saline 97 % of control | dose: 6.25 mg/kg/injection, schedule: Q01DX009 (ip), vehicle: saline with Tween-80 100 % of control | dose: 6.25 mg/kg/injection, schedule: Q01DX009 (ip), vehicle: saline 88 % of control

CCOC(=O)C1=C(Nc2ccc(F)cc2)C(=O)N(CC)C1
inactive: [5] 100 % of control | [6] 102 % of control | [7] 93 % of control

CCC1COC(COCc2ccccc2)=N1 (stereo not drawn)
inactive: dose: 100.0 mg/kg/injection, schedule: Q01DX002 (ip), vehicle: saline 98 % of control | dose: 200.0 mg/kg/injection, schedule: Q01DX002 (ip), vehicle: saline 95 % of control | dose: 400.0 mg/kg/injection, schedule: Q01DX002 (ip), vehicle: saline 95 % of control

CC(C)(C#CC(C)(C)OC(=O)Nc1ccccc1)OC(=O)Nc1ccccc1
inactive: dose: 100.0 mg/kg/injection, schedule: Q01DX009 (ip), vehicle: suspension in saline 95 % of control | dose: 200.0 mg/kg/injection, schedule: Q01DX009 (ip), vehicle: suspension in saline 97 % of control | dose: 400.0 mg/kg/injection, schedule: Q01DX009 (ip), vehicle: suspension in saline 107 % of control

C1CN(CC2CCC(CN3CCOCC3)O2)CCO1 (stereo not drawn)
inactive: dose: 3.12 mg/kg/injection, schedule: Q01DX005 (ip), vehicle: Klucel (hydroxypropylcellulose) (HPC) 96 % of control | dose: 6.25 mg/kg/injection, schedule: Q01DX005 (ip), vehicle: Klucel (hydroxypropylcellulose) (HPC) 97 % of control | dose: 12.5 mg/kg/injection, schedule: Q01DX005 (ip), vehicle: Klucel (hydroxypropylcellulose) (HPC) 100 % of control | dose: 25.0 mg/kg/injection, schedule: Q01DX005 (ip), vehicle: Klucel (hydroxypropylcellulose) (HPC) 114 % of control | dose: 50.0 mg/kg/injection, schedule: Q01DX005 (ip), vehicle: Klucel (hydroxypropylcellulose) (HPC) 96 % of control

CCc1c(O)c(C#N)c2[nH]c3cc(C)c(C)cc3n2c1=O
inactive: [5] 100 % of control | [6] 102 % of control | [7] 99 % of control

CCCn1cc2c3c(cccc31)C1C=C(C)CN(C)C1C2 (stereo not drawn)
inactive: dose: 6.25 mg/kg/injection, schedule: Q01DX005 (ip), vehicle: saline with Tween-80 100 % of control and 107 % of control | dose: 12.5 mg/kg/injection, schedule: Q01DX005 (ip), vehicle: saline with Tween-80 99 % of control and 100 % of control and 116 % of control | [8] 98 % of control and 105 % of control and 108 % of control | [9] 117 % of control

CCOP(=O)(O)CC(=O)NC(CC(=O)O)C(=O)O (stereo not drawn)
inactive: [10] 100 % of control and 111 % of control | [11] 103 % of control and 108 % of control | [12] 106 % of control

COc1cc2c(cc1OC)CN1CSc3cc(OC)c(OC)cc3C1C2 (stereo not drawn)
inactive: [13] 92 % of control | dose: 200.0 mg/kg/injection, schedule: Q01DX001 (ip), vehicle: saline with Tween-80 92 % of control

CNC(=O)OCc1cocc1COC(=O)NC
inactive: dose: 12.5 mg/kg/injection, schedule: Q01DX009 (ip), vehicle: distilled water + Tween-80 106 % of control | dose: 25.0 mg/kg/injection, schedule: Q01DX009 (ip), vehicle: distilled water + Tween-80 101 % of control | dose: 50.0 mg/kg/injection, schedule: Q01DX009 (ip), vehicle: distilled water + Tween-80 109 % of control | dose: 100.0 mg/kg/injection, schedule: Q01DX009 (ip), vehicle: distilled water + Tween-80 117 % of control

COC(=O)c1cc(C)c(C)cc1NC1OC(CO)C(O)C1O (stereo not drawn)
inactive: [5] 101 % of control | [6] 95 % of control | [7] 97 % of control

O=C(OC1COC(Br)C(OC(=O)c2ccccc2)C1OC(=O)c1ccccc1)c1ccccc1 (stereo not drawn)
inactive: [11] 100 % of control | [12] 100 % of control | dose: 400.0 mg/kg/injection, schedule: Q01DX009 (ip), vehicle: Klucel (hydroxypropylcellulose) (HPC) 90 % of control

COc1cc2cc3c(c(O)c2c(OC)c1OC)C(=O)CC(C)(C)C3
inactive: [8] 101 % of control | [14] 91 % of control

CCCCCCC(=O)/C=C/c1cc(OC)cc(OC)c1
inactive: [1] 96 % of control | [3] 103 % of control | dose: 200.0 mg/kg/injection, schedule: Q01DX009 (ip), vehicle: saline with Tween-80 91 % of control

C=C(c1ccccc1)c1ccccc1-c1ccccc1C(=C)c1ccccc1
inactive: dose: 100.0 mg/kg/injection, schedule: Q04DX003 (ip), vehicle: saline 99 % of control | dose: 200.0 mg/kg/injection, schedule: Q04DX003 (ip), vehicle: saline 100 % of control | dose: 400.0 mg/kg/injection, schedule: Q04DX003 (ip), vehicle: saline 98 % of control

c1ccc2c(c1)-c1ccccc1C1NC21 (stereo not drawn)
inactive: dose: 12.5 mg/kg/injection, schedule: Q01DX001 (ip), vehicle: saline with Tween-80 99 % of control and 110 % of control | dose: 25.0 mg/kg/injection, schedule: Q01DX001 (ip), vehicle: saline with Tween-80 105 % of control and 110 % of control and 123 % of control | dose: 50.0 mg/kg/injection, schedule: Q01DX001 (ip), vehicle: saline with Tween-80 113 % of control | [14] 112 % of control | [13] 113 % of control | [9] 110 % of control | dose: 200.0 mg/kg/injection, schedule: Q01DX005 (ip), vehicle: saline with Tween-80 119 % of control

CCOc1ccc(-n2cnc3c(=O)[nH]c(N)nc32)cc1
inactive: dose: 15.0 mg/kg/injection, schedule: Q01DX005 (ip), vehicle: saline with Tween-80 90 % of control | dose: 30.0 mg/kg/injection, schedule: Q01DX005 (ip), vehicle: saline with Tween-80 91 % of control | [5] 86 % of control and 90 % of control | [7] 102 % of control

Cc1nn(C(=O)c2ccncc2)c(C)c1N=Nc1cccc2ccccc12
inactive: [10] 96 % of control | [11] 99 % of control | [12] 96 % of control
